In patent US7439396B2, “Pharmaceutical/cosmetic compositions comprising novel ligands that activate RAR receptors” (Galderma Research & Development, priority 2003, dated 2008):

How the values were obtained:
Type in all cases: cell-based
[1] = target: T1, RAR beta (Homo sapiens, UniProt P10826); experiment: Transactivation test, HeLa cells stably transfected with RAR beta ER-DBD and ERE-luciferase reporter; conditions: for AC50: at the reference ligand concentration that gives 80% activation; for Kd: crossed curves against reference antagonist, Schild regression, read-out: RAR beta Kd app
T1 sequence (P10826 183-417 limits assumed): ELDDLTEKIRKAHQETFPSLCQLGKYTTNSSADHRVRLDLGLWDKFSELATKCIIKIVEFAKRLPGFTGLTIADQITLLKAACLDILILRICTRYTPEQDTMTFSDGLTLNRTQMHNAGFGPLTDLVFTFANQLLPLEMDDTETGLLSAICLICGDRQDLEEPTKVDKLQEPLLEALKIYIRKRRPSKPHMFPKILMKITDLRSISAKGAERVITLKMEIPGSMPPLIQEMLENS
Protocol: (§1) The activation of receptors with an agonist (activator) in HeLa cells leads to the expression of a reporter gene, luciferase, which, in the presence of a substrate, generates light. The activation of the receptors may thus be measured by quantifying the luminescence produced after incubating the cells in the presence of a reference antagonist. The activating products displace the antagonist from its site, thus permitting activation of the receptor. The activity is measured by quantifying the increase in light produced. This measurement makes it possible to determine the activating activity of the compounds according to the invention.
(§2) In this study, a constant is determined which is the affinity of the molecule for the receptor. Since this value can fluctuate depending on the basal activity and the expression of the receptor, it is referred to as the Kd apparent (KdApp).
(§3) To determine this constant, “crossed curves” of the test product against a reference antagonist, 4-(5,5-dimethyl-8-p-tolyl-5,6-dihydro-2-naphthalen-2-ylethynyl)benzoic acid, are performed in 96-well plates. The test product is used at 10 concentrations and the reference antagonist at 7 concentrations. In each well, the cells are in contact with a concentration of the test product and a concentration of the reference antagonist, 4-(5,5-dimethyl-8-p-tolyl-5,6-dihydro-2-naphthalen-2-ylethynyl)benzoic acid. Measurements are also taken for the total agonist (4-[2-(5,5,8,8-tetramethyl-5,6,7,8-tetrahydro-2-naphthyl)propenyl]benzoic acid) and inverse agonist, 4-{(E)-3-[4-(4-tert-butylphenyl)-5,5,8,8-tetramethyl-5,6,7,8-tetrahydro-2-naphthyl]-3-oxopropenyl}benzoic acid, controls.
(§4) These crossed curves make it possible to determine the AC50 values (concentration at which 50% activation is observed) for the reference ligand at various concentrations of test product. These AC50 values are used to calculate the Schild regression by plotting a straight line corresponding to the Schild equation (“Quantitation in Receptor Pharmacology” Terry P. Kenakin, Receptors and Channels, 2001, 7, 371-385).
(§5) In the case of an agonist, an AC50 value (concentration that gives 50% of the activity) is calculated by plotting the curve of the product at the concentration of the reference ligand that gives 80% activation.
(§6) The HeLa cell lines used are stable transfectants containing the plasmids ERE-μGlob-Luc-SV-Neo (reporter gene) and RAR (α, β, γ) ER-DBD-puro. These cells are inoculated into 96-well plates at a rate of 10 000 cells per well in 100 μl of DMEM medium without phenol red, and supplemented with 10% defatted calf serum. […]
(§7) The culture medium is removed by turning over and 100 μl of a 1:1 PBS/luciferin mixture is added to each well. After 5 minutes, the plates are read using the luminescence reader.

[2] = target: T2, RAR gamma (Homo sapiens, UniProt P13631); experiment: Transactivation test, HeLa cells stably transfected with RAR gamma ER-DBD and ERE-luciferase reporter; conditions: for AC50: at the reference ligand concentration that gives 80% activation; for Kd: crossed curves against reference antagonist, Schild regression, read-out: RAR gamma Kd app
T2 sequence (P13631 185-419 limits assumed): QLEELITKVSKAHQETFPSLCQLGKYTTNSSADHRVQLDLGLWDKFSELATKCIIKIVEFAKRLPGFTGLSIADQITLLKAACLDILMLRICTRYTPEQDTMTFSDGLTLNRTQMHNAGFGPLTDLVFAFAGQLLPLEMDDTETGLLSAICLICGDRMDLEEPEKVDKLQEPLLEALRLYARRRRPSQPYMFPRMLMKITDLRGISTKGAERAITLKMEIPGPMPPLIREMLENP
Protocol: as §1, §2, §3, §4, §5, §6, §7

[3] = target: T3, RAR alpha (Homo sapiens, UniProt P10276); experiment: Transactivation test, HeLa cells stably transfected with RAR alpha ER-DBD and ERE-luciferase reporter
T3 sequence (P10276 183-417 limits assumed): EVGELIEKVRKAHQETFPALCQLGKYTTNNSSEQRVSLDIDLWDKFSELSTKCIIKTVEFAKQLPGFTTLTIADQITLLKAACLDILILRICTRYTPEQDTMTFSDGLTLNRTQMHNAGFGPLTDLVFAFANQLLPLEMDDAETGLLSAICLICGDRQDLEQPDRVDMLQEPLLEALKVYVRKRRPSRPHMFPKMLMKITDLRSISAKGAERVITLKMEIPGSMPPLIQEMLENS
Protocol: as §1
In this study, a constant is determined which is the affinity of the molecule for the receptor. […]
as §4
In the case of an agonist, an AC50 value (concentration that gives 50% of the activity) is calculated by plotting the curve of the product at the concentration of the reference ligand that gives 80% activation. […]

| SMILES | AC50 [1] [nM] | Kd [1] [nM] | AC50 [2] [nM] | Kd [2] [nM] | AC50 ([3]; at the reference ligand concentration that gives 80% activation) [nM] | Kd ([3]; crossed curves against reference antagonist, Schild regression, read-out: RAR alpha Kd app) [nM] |
| --- | --- | --- | --- | --- | --- | --- |
| CCN(CC)c1ccc(C(COc2ccc(C(=O)O)cc2)=NO)cc1C(C)(C)C [Ex 1, 4-[2-(3-tert-Butyl-4-diethylaminophenyl)-2-hydroxyiminoethoxy]benzoic acid] | 2500 | 500 | 80 | 60 |  |  |
| CCN(CC)c1ccc(C(COc2ccc(C(=O)O)c(O)c2)=NO)cc1C(C)(C)C [Ex 2, 4-[2-(3-tert-Butyl-4-diethylaminophenyl)-2-hydroxyiminoethoxy]-2-hydroxybenzoic acid] | 1000 | 500 | 4 | 4 | 5000 | 5000 |
